Laboratory results reported in patent publication US20100022491A1, “4-HYDROXY-2-OXO-2,3-DIHYDRO-1,3-BENZOTHIAZOL-7YL COMPOUNDS FOR MODULATION OF B2-ADRENORECEPTOR ACTIVITY” (ASTRAZENECA AB, priority 2006, published 2010).
Structures can show the parent of a compound that is named as a salt.

Legend:
[1] = molecular target: T1, recombinant human Dopamine Subtype D2s receptors (Homo sapiens, UniProt P14416); assay: Dopamine D2 selectivity binding assay ([3H]-spiperone); details: inhibition of [3H]-spiperone (0.16 nM) binding; for IC50: read-out: D2 bind pIC50 (converted)
T1 construct: purchased Perkin Elmer
T1 sequence (P14416 1-414 isoform P14416-2): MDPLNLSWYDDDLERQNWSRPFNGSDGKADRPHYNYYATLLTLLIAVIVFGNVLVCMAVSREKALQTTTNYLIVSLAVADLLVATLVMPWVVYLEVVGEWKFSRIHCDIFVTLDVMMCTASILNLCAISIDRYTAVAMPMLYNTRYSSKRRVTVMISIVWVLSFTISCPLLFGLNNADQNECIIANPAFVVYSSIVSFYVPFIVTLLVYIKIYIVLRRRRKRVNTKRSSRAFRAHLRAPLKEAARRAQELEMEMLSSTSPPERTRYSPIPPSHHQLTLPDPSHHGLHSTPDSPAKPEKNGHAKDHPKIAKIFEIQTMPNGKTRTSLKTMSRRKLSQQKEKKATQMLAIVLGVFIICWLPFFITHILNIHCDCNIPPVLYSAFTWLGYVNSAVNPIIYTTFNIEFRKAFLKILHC
Outline: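 Displacement of [3H]-spiperone (0.16 nM final) from human D2s receptor membranes in pH 7.4 HEPES buffer over 2 h at room temperature, then filtration and scintillation counting. Specific binding taken as vehicle minus 10 μM haloperidol wells. Potency given as pIC50 from a four-parameter logistic curve.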

Adrenergic β2 = molecular target: T2, Adrenergic β2 (Homo sapiens, UniProt P07550); assay: Adrenergic β2 mediated cAMP production in H292 cells; type: cell-based; details: for EC50 / β2 pEC50: H292 cells, cAMP by AlphaScreen, 60 minutes at room temperature, rolipram 300 μM; for EC50: read-out: β2 pEC50 (converted); for β2 Int Act: Intrinsic Activity as a fraction relative to the maximum activity determined for formoterol
T2 construct: Adherent H292 cells were removed from tissue culture flasks; endogenous in cells; host or cells: H292 cells
T2 sequence (P07550 whole entry): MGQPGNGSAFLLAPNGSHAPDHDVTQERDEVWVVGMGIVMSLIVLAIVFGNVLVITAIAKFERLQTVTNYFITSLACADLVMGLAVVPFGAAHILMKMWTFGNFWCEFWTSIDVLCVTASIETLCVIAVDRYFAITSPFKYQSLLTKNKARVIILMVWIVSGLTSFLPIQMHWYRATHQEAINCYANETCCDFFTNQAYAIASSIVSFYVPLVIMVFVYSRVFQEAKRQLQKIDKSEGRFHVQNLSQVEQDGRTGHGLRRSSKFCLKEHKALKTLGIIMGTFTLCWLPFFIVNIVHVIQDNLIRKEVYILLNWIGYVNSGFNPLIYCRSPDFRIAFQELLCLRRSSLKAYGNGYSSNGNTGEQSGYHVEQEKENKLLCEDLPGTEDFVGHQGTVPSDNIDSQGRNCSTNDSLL
Outline: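 cAMP accumulation in adherent H292 cells, measured by AlphaScreen and calibrated with cAMP standards. Compounds incubated 60 min at room temperature after 10 min rolipram (final 300 μM; vehicle 1.6% DMSO). pEC50 and intrinsic activity, as a fraction of formoterol's maximum, from four-parameter logistic fit.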

SMILES | IC50 [1] [nM] | EC50 (Adrenergic β2) [nM] | β2 Int Act (Adrenergic β2) | β2 Int Act (Adrenergic β2; dihydrobromide salt) | D2 bind pIC50 [1] | β2 pEC50 (Adrenergic β2)
CC(C)(CO)CN(CCNCCc1ccc(O)c2[nH]c(=O)sc12)C(=O)CCNCCc1ccccc1Cl [Example 65, N^3-[2-(2-Chlorophenyl)ethyl]-N^1-(3-hydroxy-2,2-dimethylpropyl)-N^1-(2-{[2-(4-hydroxy-2-oxo-2,3-dihydro-1,3-benzothiazol-7-yl)ethyl]amino}ethyl)-β-alaninamide bis-trifluoroacetic acid salt] | 398 | 12.6 | 0.59 |  |  | 
O=C(CCNCCc1cc(F)ccc1F)N(CCNCCc1ccc(O)c2[nH]c(=O)sc12)C1CCCCC1 [Example 79, N^1-Cyclohexyl-N^3-[2-(2,5-difluorophenyl)ethyl]-N^1-(2-{[2-(4-hydroxy-2-oxo-2,3-dihydro-1,3-benzothiazol-7-yl)ethyl]amino}ethyl)-β-alaninamide bis-trifluoroacetic acid salt] | 158 | 2.51 | 0.84 |  |  | 
O=C(CCNCCc1cccc(O)c1)N(CCNCCc1ccc(O)c2[nH]c(=O)sc12)C1CCCCC1 [Example 71, N^1-Cyclohexyl-N^1-(2-{[2-(4-hydroxy-2-oxo-2,3-dihydro-1,3-benzothiazol-7-yl)ethyl]amino}ethyl)-N^3-[2-(3-hydroxyphenyl)ethyl]-β-alaninamide bis-trifluoroacetic acid salt] | 100 | 0.398 | 0.97 |  |  | 
O=C(CCNCCc1cccc(F)c1)N(CCNCCc1ccc(O)c2[nH]c(=O)sc12)CC12CC3CC(CC(C3)C1)C2 [Example 60, N^1-(1-Adamantylmethyl)-N^3-[2-(3-fluorophenyl)ethyl]-N^1-(2-{[2-(4-hydroxy-2-oxo-2,3-dihydro-1,3-benzothiazol-7-yl)ethyl]amino}ethyl)-β-alaninamide bis-trifluoroacetic acid salt] | 794 | 20 | 0.76 |  |  | 
O=C(CCNCCc1cc(F)ccc1F)N(CCNCCc1ccc(O)c2[nH]c(=O)sc12)C1CCCCCC1 [Example 83, N^1-Cycloheptyl-N^3-[2-(2,5-difluorophenyl)ethyl]-N^1-(2-{[2-(4-hydroxy-2-oxo-2,3-dihydro-1,3-benzothiazol-7-yl)ethyl]amino}ethyl)-β-alaninamide bis-trifluoroacetic acid salt] | 63.1 | 3.98 | 0.71 |  |  | 
O=C(CCNCCc1cccc(O)c1)N(CCNCCc1ccc(O)c2[nH]c(=O)sc12)C1CCCCCC1 [Example 37, N-Cycloheptyl-N-(2-{[2-(4-hydroxy-2-oxo-2,3-dihydro-1,3-benzothiazol-7-yl)ethyl]amino}ethyl)-N^3-[2-(3-hydroxyphenyl)ethyl]-β-alaninamide bis-trifluoroacetic acid salt] | 398 | 1 | 0.91 |  |  | 
CC(C)(C)CN(CCNCCc1ccc(O)c2[nH]c(=O)sc12)C(=O)CCNC(C)(C)Cc1ccccc1 [Example 38, N^3-(1,1-Dimethyl-2-phenylethyl)-N-(2,2-dimethylpropyl)-N-(2-{[2-(4-hydroxy-2-oxo-2,3-dihydro-1,3-benzothiazol-7-yl)ethyl]amino}ethyl)-β-alaninamide bis-trifluoroacetic acid salt] | 794 | 63.1 | 0.42 |  |  | 
O=C(CCNCCc1cccc(F)c1)N(CCNCCc1ccc(O)c2[nH]c(=O)sc12)C1CCCCCC1 [Example 36, N-Cycloheptyl-N^3-[2-(3-fluorophenyl)ethyl]-N-(2-{[2-(4-hydroxy-2-oxo-2,3-dihydro-1,3-benzothiazol-7-yl)ethyl]amino}ethyl)-β-alaninamide bis-trifluoroacetic acid salt] | 200 | 2.51 | 0.84 |  |  | 
CC(C)(CO)CN(CCNCCc1ccc(O)c2[nH]c(=O)sc12)C(=O)CCNCCc1cccc(Cl)c1Cl [Example 67, N^3-[2-(2,3-Dichlorophenyl)ethyl]-N^1-(3-hydroxy-2,2-dimethylpropyl)-N^1-(2-{[2-(4-hydroxy-2-oxo-2,3-dihydro-1,3-benzothiazol-7-yl)ethyl]amino}ethyl)-β-alaninamide bis-trifluoroacetic acid salt] | 158 | 20 | 0.70 |  |  | 
COc1ccc(CCNCCC(=O)N(CCNCCc2ccc(O)c3[nH]c(=O)sc23)C2CCCCC2)cc1 [Example 68, N^1-Cyclohexyl-N^1-(2-{[2-(4-hydroxy-2-oxo-2,3-dihydro-1,3-benzothiazol-7-yl)ethyl]amino}ethyl)-N^3-[2-(4-methoxyphenyl)ethyl]-β-alaninamide bis-trifluoroacetic acid salt] | 50.1 | 10 | 0.68 |  |  | 
O=C(CCNCCc1ccccc1)N(CCNCCc1ccc(O)c2[nH]c(=O)sc12)C1CCCCCC1 [Example 98, N-Cycloheptyl-N-(2-{[2-(4-hydroxy-2-oxo-2,3-dihydro-1,3-benzothiazol-7-yl)ethyl]amino}ethyl)-N^3-(2-phenylethyl)-β-alaninamide dihydrobromide salt] | 158 | 1.58 |  | 0.8 |  | 
O=C(CCNCCc1ccccc1Cl)N(CCNCCc1ccc(O)c2[nH]c(=O)sc12)C1CCCC1 [Example 29, N^3-[2-(2-Chlorophenyl)ethyl]-N-cyclopentyl-N-(2-{[2-(4-hydroxy-2-oxo-2,3-dihydro-1,3-benzothiazol-7-yl)ethyl]amino}ethyl)-β-alaninamide bis-trifluoroacetic acid salt] | 251 | 3.98 | 0.97 |  |  | 
O=C(CCNCCc1cc(F)cc(F)c1)N(CCNCCc1ccc(O)c2[nH]c(=O)sc12)C1CCCCC1 [Example 92, N-Cyclohexyl-N^3-[2-(3,5-difluorophenyl)ethyl]-N-(2-{[2-(4-hydroxy-2-oxo-2,3-dihydro-1,3-benzothiazol-7-yl)ethyl]amino}ethyl)-β-alaninamide dihydrobromide salt] |  |  |  |  | 6.5 | 8.5
O=C(CCNCCc1ccccc1)N(CCNCCc1ccc(O)c2[nH]c(=O)sc12)C1Cc2ccccc2C1 [Example 41, N^1-(2,3-Dihydro-1H-inden-2-yl)-N^1-(2-{[2-(4-hydroxy-2-oxo-2,3-dihydro-1,3-benzothiazol-7-yl)ethyl]amino}ethyl)-N^3-(2-phenylethyl)-β-alaninamide bis-trifluoroacetic acid salt] | 200 | 31.6 | 0.99 |  |  | 
O=C(CCNC[C@@H](O)c1ccccc1)N(CCNCCc1ccc(O)c2[nH]c(=O)sc12)C1CCCCC1 [Example 74, N^1-Cyclohexyl-N^1-(2-{[2-(4-hydroxy-2-oxo-2,3-dihydro-1,3-benzothiazol-7-yl)ethyl]amino}ethyl)-N^3-[(2S)-2-hydroxy-2-phenylethyl]-β-alaninamide bis-trifluoroacetic acid salt] | 501 | 12.6 | 0.79 |  |  | 
C[C@H](CNCCC(=O)N(CCNCCc1ccc(O)c2[nH]c(=O)sc12)CC(C)(C)C)c1ccccc1 [Example 11, N-(2,2-Dimethylpropyl)-N-(2-{[2-(4-hydroxy-2-oxo-2,3-dihydro-1,3-benzothiazol-7-yl)ethyl]amino}ethyl)-N^3-[(2S)-2-phenylpropyl]-β-alaninamide bis-trifluoroacetic acid salt] | 501 | 15.8 | 0.84 |  |  | 
O=C(CCNCCc1ccccc1Cl)N(CCNCCc1ccc(O)c2[nH]c(=O)sc12)C1CCCCC1 [Example 17, N^3-[2-(2-Chlorophenyl)ethyl]-N-cyclohexyl-N-(2-{[2-(4-hydroxy-2-oxo-2,3-dihydro-1,3-benzothiazol-7-yl)ethyl]amino}ethyl)-β-alaninamide bis-trifluoroacetic salt] | 158 | 1.58 | 0.90 |  |  | 
O=C(CCNCCc1cccc(F)c1)N(CCNCCc1ccc(O)c2[nH]c(=O)sc12)C1CCCCCC1 [Example 95, N-Cycloheptyl-N^3-[2-(3-fluorophenyl)ethyl]-N-(2-{[2-(4-hydroxy-2-oxo-2,3-dihydro-1,3-benzothiazol-7-yl)ethyl]amino}ethyl)-β-alaninamide dihydromide salt] |  |  |  |  | 6.7 | 8.6
O=C(CCNCCc1ccccc1)N(CCNCCc1ccc(O)c2[nH]c(=O)sc12)C1CCSCC1 [Example 62, N-(2-{[2-(4-Hydroxy-2-oxo-2,3-dihydro-1,3-benzothiazol-7-yl)ethyl]amino}ethyl)-N^3-(2-phenylethyl)-N^1-(tetrahydro-2H-thiopyran-4-yl)-β-alaninamide bis-trifluoroacetic acid salt] | 398 | 6.31 | 0.87 |  |  | 
O=C(CCNCCc1cccc(F)c1F)N(CCNCCc1ccc(O)c2[nH]c(=O)sc12)C1CCCCC1 [Example 93, N-Cyclohexyl-N^3-[2-(2,3-difluorophenyl)ethyl]-N-(2-{[2-(4-hydroxy-2-oxo-2,3-dihydro-1,3-benzothiazol-7-yl)ethyl]amino}ethyl)-β-alaninamide dihydrobromide salt] |  |  |  |  | 6.5 | 8.6
